“And” between values parts separate entries of the source, which are not always exact repeats. Equal entries are not always repeated. Where two headings read alike, the source gives them in different places.
What was measured:
Format in all cases: in vivo, Mouse (ICR:CD-1)
[1] = tested on: PTZ mouse model of seizures; assay: PTZ-induced seizures study; conditions: for Protection from clonic seizures (PTZ) vs vehicle / Protection from tonic hindlimb seizures (PTZ) vs vehicle: 200 mg/kg IP, PTZ 100 mg/kg i.p.
Protocol: Route(s) of administration: Intraperitoneal (i.p.) and per oral (p.o.) (Diazepam)
(§1) Vehicle for the test compounds: 1:1:18 ethanol:cremophor (Kolliphor) EL:0.9% saline
Vehicle for diazepam: 0.5% MC, 0.1% Tween 80 in water
Interval between dose and evaluation: 30 min for test articles and diazepam, 60 min for CBD
Mice were acclimated to the procedure room for at least 30 minutes. Pentylenetetrazole (PTZ; SigmaAldrich) was formulated in water to a concentration of 20 mg/ml. Injections of PTZ were made at a volume of 5 ml/kg to produce a final dose of 100 mg/kg. PTZ injections were i.p. Diazepam was formulated at a concentration of 2 mg/ml and administered at volume of 10 ml/kg to produce a final dose of 20 mg/kg. Time to initial myoclonic and tonic hindlimb extensor response was measured. A 10-min maximum latency to seizure was imposed.
(§2) The data was expressed as mean+SEM. Statistical analysis using one-way ANOVA with post-hoc Fisher's LSD test was used to determine statistical significance compared to the vehicle-treated animals.

[2] = PK study: plasma levels after i.p. administration (LC/MS/MS); conditions: 100 mg/kg i.p.; for Time of maximal concentration in plasma after the injection: sampling at 30, 60, 120 min; for concentration at 30 min / concentration at 60 min / concentration at 120 min: CD-1, mouse, plasma, intraperitoneal, 100 mg/kg
Protocol: Route(s) of administration: Intraperitoneal (i.p.)
Vehicle for the test compounds and CBD: 1:1:18 ethanol:cremophor (Kolliphor) EL:0.9% saline
IP administration: 0.5 h (30 min), 1 h, 2 h,
For testing of each compound, six CD-1 mice were divided into 2 groups of 3. Animals were administered test agents via i.p. route and blood collected at 30, 60 and 120 min, administration as outlined in Table 1. Blood samples were collected in EDTA-coated microfuge tubes, inverted and placed on an ice pack prior to centrifugation and storage at −70° C. Samples were extracted using an acetonitrile/protein precipitation method and levels of test agent analysed by LC/MS/MS.
Bioanalytical detection method was developed using an LC/MS/MS (ABI 5000 or 5500). Standard curves of the test agent were prepared in an appropriate biological matrix (plasma). Levels of test article was measured in plasma as per the developed method.
Levels were determined by extrapolating the concentration from a standard curve using linear regression analysis. Method development and bioanalysis was performed by a partner company, Keystone Bioanalytical (North Wales, Pa., US).

[3] = tested on: MES mouse model of seizures; assay: Maximal Electroshock (MES) seizure study; conditions: for Effect in MES study (latency to tonic hindlimb seizure) vs vehicle: 200 mg/kg IP
Protocol: Route(s) of administration: Intraperitoneal (i.p.) and per oral (p.o.)
as §1
Vehicle for phenytoin: 0.5% MC in water
Dose Levels: 100-200 mg/kg (Table 2), Phenytoin 60 mg/kg
Interval between dose and evaluation: 30 min for test articles and phenytoin, 60 min for CBD
Animals were administered vehicle, phenytoin, CBD or test compounds and gross behavioural observations were done for 30 minutes. Proparacaine hydrochloride ophthalmic solution (Butler AHS, Dublin, Ohio) was applied approximately 10 minutes prior to testing to numb the eyes. Thirty to sixty minutes after administration of vehicle, phenytoin, CBD or test compounds, 0.9% saline solution (sodium chloride in water) was applied to both eyes and electro-convulsions were produced by an alternating current delivered via corneal electrodes by a Rodent Shocker generator at a frequency of 60 Hz (Harvard Apparatus, Holliston, Mass.). Parameters for the ICR:CD1 mice were 0.2 s stimulus duration at an intensity of 25 mA. The criterion for seizure occurrence were presence of a tonic hind limb extension, defined as extension exceeding a 90-degree angle with the plane of the body. […] Any seizure activity (i.e. clonic seizures defined as rapid spasms or jerky movements of the limbs) prior to tonic hind limb seizure were recorded as presence of seizure (noted as 1-yes, 0-no). After seizure exhibition or 20-second timeout, mice were euthanized via cervical dislocation.
as §2

[4] = 30 min pretreatment, listed as (−)-trans CBD-PET
[5] = 30 min pretreatment, listed as CBD-PET
[6] = 30 min pretreatment, listed as (−)-trans CBD-PET-OH
[7] = 30 min pretreatment, listed as CBD-PET-OH

Question: For `CN1C(=O)CN=C(c2ccccc2)c2cc(Cl)ccc21` [diazepam, reference compound], which “Protection from the seizures (PTZ, clonic and tonic hindlimb)” value ([1]; 30 mg/kg PO (Table 3), 30 min pretreatment, positive control) is on record?
Answer: 100%

Question: With `C=C(C)[C@@H]1CCC(C)=C[C@H]1c1c(O)cc(CCc2ccccc2)cc1O` [(−)-trans-CBD-PET, (1′R,2′R)-5′-methyl-4-phenethyl-2′-(prop-1-ene-2-yl)-1′,2′,3′,4′-tetrahydro-[1,1′-biphenyl]-2,6-diol] as the compound, how does the “(—)-trans-CBD-PET in plasma” value ([2]; 30 min, individual animals) read?
Answer: 3519.2 ng/mL and 3872.3 ng/mL

Question: What about the “(—)-trans-CBD-PET in plasma” value ([2]; 60 min, individual animals) of the same compound?
Answer: 2729.5 ng/mL and 1728.7 ng/mL

Question: And the “(—)-trans-CBD-PET in plasma” value ([2]; 120 min, individual animals)?
Answer: 2188.6 ng/mL and 770.3 ng/mL and 982.7 ng/mL

Question: What about the “Time of maximal concentration in plasma after the injection” value [2] of the same compound?
Answer: 30 min

Question: What about the concentration at 30 min ([2]; 30 min, average of 3 mice, read-out: Average (ng/ml), (—)-trans-CBD-PET in plasma) of the same compound?
Answer: 3810 ng/mL

Question: What about the concentration at 30 min ([2]; 30 min, individual animals, read-out: (—)-trans-CBD-PET in plasma) of the same compound?
Answer: 4030 ng/mL

Question: And the concentration at 60 min ([2]; 60 min, average of 3 mice, read-out: Average (ng/ml), (—)-trans-CBD-PET in plasma)?
Answer: 2140 ng/mL

Question: And the concentration at 60 min ([2]; 60 min, individual animals, read-out: (—)-trans-CBD-PET in plasma)?
Answer: 1960 ng/mL

Question: What about the concentration at 120 min ([2]; 120 min, average of 3 mice, read-out: Average (ng/ml), (—)-trans-CBD-PET in plasma) of the same compound?
Answer: 1310 ng/mL

Question: What about the “Effect in MES study (latency to tonic hindlimb seizure) vs vehicle” value (“Effect in MES study … vs vehicle” for short) ([3]; 30 min pretreatment) of the same compound?
Answer: inactive

Question: What about the “Protection from clonic seizures (PTZ) vs vehicle” value [1, 4] of the same compound?
Answer: significant protection

Question: What about the “Protection from tonic hindlimb seizures (PTZ) vs vehicle” value [1, 4] of the same compound?
Answer: significant effect

Question: What about the “Protection from clonic seizures (PTZ) vs vehicle” value [1, 5] of the same compound?
Answer: activity against both clonic and tonic seizures

Question: What about the “Protection from tonic hindlimb seizures (PTZ) vs vehicle” value [1, 5] of the same compound?
Answer: activity against both clonic and tonic seizures

Question: Which “(—)-trans-CBD-PET-OH in plasma” value ([2]; 30 min, individual animals) does the source give for `C=C(C)[C@@H]1CCC(C)=C[C@H]1c1c(O)cc(CCc2ccc(O)cc2)cc1O` [(−)-trans-CBD-PET-OH, (1′R,2′R)-4-(4-hydroxyphenethyl)-5′-methyl-2′-(prop-1-ene-2-yl)-1′,2′,3′,4′-tetrahydro-[1,1′-biphenyl]-2,6-diol] here?
Answer: 8897.4 ng/mL and 8936.2 ng/mL

Question: What about the “(—)-trans-CBD-PET-OH in plasma” value ([2]; 60 min, individual animals) of the same compound?
Answer: 8877.8 ng/mL and 8055.5 ng/mL

Question: What about the “(—)-trans-CBD-PET-OH in plasma” value ([2]; 120 min, individual animals) of the same compound?
Answer: 2831.1 ng/mL and 3274.9 ng/mL

Question: What about the “Time of maximal concentration in plasma after the injection” value [2] of the same compound?
Answer: 30 min

Question: What about the concentration at 30 min ([2]; 30 min, average of 3 mice, read-out: Average (ng/ml), (—)-trans-CBD-PET-OH in plasma) of the same compound?
Answer: 8120 ng/mL

Question: What about the concentration at 30 min ([2]; 30 min, individual animals, read-out: (—)-trans-CBD-PET-OH in plasma) of the same compound?
Answer: 6520 ng/mL

Question: And the concentration at 60 min ([2]; 60 min, average of 3 mice, read-out: Average (ng/ml), (—)-trans-CBD-PET-OH in plasma)?
Answer: 7920 ng/mL

Question: What about the concentration at 60 min ([2]; 60 min, individual animals, read-out: (—)-trans-CBD-PET-OH in plasma) of the same compound?
Answer: 6840 ng/mL

Question: What about the concentration at 120 min ([2]; 120 min, average of 3 mice, read-out: Average (ng/ml), (—)-trans-CBD-PET-OH in plasma) of the same compound?
Answer: 3460 ng/mL

Question: What about the concentration at 120 min ([2]; 120 min, individual animals, read-out: (—)-trans-CBD-PET-OH in plasma) of the same compound?
Answer: 4290 ng/mL

Question: What about the “Effect in MES study … vs vehicle” value [3, 6] of the same compound?
Answer: significantly different from vehicle

Question: What about the “Effect in MES study … vs vehicle” value [3, 7] of the same compound?
Answer: effective

Question: What about the “Protection from tonic hindlimb seizures (PTZ) vs vehicle” value [1, 6] of the same compound?
Answer: significant effect

Question: And the “Protection from tonic hindlimb seizures (PTZ) vs vehicle” value [1, 7]?
Answer: particularly effective against tonic seizures

Question: With `O=C1NC(=O)C(c2ccccc2)(c2ccccc2)N1` [phenytoin, reference compound] as the compound, how does the “Protection from the seizures (MES)” value ([3]; 60 mg/kg PO, 30 min pretreatment, positive control) read?
Answer: 100%

Question: Which results are given for `C=C(C)[C@@H]1CCC(C)=C[C@H]1c1c(O)cc(CCCCC)cc1O` [Cannabidiol, reference compound]?
Answer: Effect in MES model vs vehicle ([3]; 100 mg/kg IP, 60 min prior to MES): did not produce a significant effect; Effect in PTZ model vs vehicle ([1]; 100 mg/kg IP, 60 min prior to PTZ): did not produce a significant effect
